Legend:
[1] = system: orthotopic neuroblastoma xenograft (SK-N-BE(2) cells); assay: Orthotopic neuroblastoma xenograft model, tumor growth by ultrasound; assay type: in vivo, mice; conditions: diet 2000 ppm NEN (n=4) vs control group (n=6)
Method: Mouse orthotopic neuroblastoma model. All mouse procedures were performed in accordance with Stanford University recommendations for the care and use of animals and were maintained and handled under protocols approved by the Institutional Animal Care and Use Committee. All procedures were performed with female NC nude mice (Taconic, Hudson, NY, USA) at 7 weeks of age. Procedures and ultrasound measurements (see below) were performed under general anesthesia using isoflurane inhalation. Orthotopic tumors within the adrenal gland were created as described before 16. Briefly, a transverse incision was made on the left flank to locate the left adrenal gland, and […] of phosphate buffered saline (PBS) containing […] SK-N-BE(2) cells were injected into the adrenal gland using a 30 G needle. Fascia and skin were closed in separate layers. Tumor formation was monitored by non-invasive ultrasound measurements, and the animals euthanized when the tumor volume exceeded 1,000 mm^3. Monitoring tumor growth with high frequency ultrasound. After securing the mouse in a prone position, a Visual Sonics Vevo 2100 sonographic probe (Toronto, Ontario, Canada) was applied to the left flank to locate the left adrenal gland and the tumor. […] The tumor volume was measured using the 3-D reconstruction tool (Vevo Software v1.6.0, Toronto, Ontario, Canada).

neuroblastoma cells = assay: Cell proliferation (cell counting); assay type: cell-based; conditions: 1 μM NEN vs DMSO
Method: (§1) Cell proliferation and clonogenic assay. 2×10^4 cells were seeded in 12 well-plate and allowed to attached overnight. […] After treatment, cells were counted using hemocytometer.

N-Myc = N-Myc mRNA and protein levels (qPCR, western blot); assay type: cell-based; conditions: SK-N-BE(2) cells, 1 μM NEN
Method: Protein extraction and immunoblot. Cells were washed with ice-cold PBS buffer (Invitrogen, 20012050) and lysed with harvest buffer (10 mM Hepes pH 7.9, 50 mM NaCl, 500 mM sucrose, 0.1 mM EDTA and 0.5% Trition X-100) supplemented with 1% Halt inhibitors (Thermo Scientific™, 78443) for 10 minutes. Cell lysate was centrifuged at 3000 rpm for 3 min at 4° C. The supernatant containing cytosolic proteins was transferred to a different tube. The pellet containing nuclear proteins was dissolved with nuclear lysis buffer (10 mM Hepes pH 7.9, 0.5M NaCl, 0.1 mM EDTA, 0.1 mM EGTA and 0.1% NP40) supplemented with 1% Halt inhibitors (Thermo Scientific™, 78443) for 5 minutes at 4° C. Then the solution was sonicated at 4° C. for 6 cycles (1 cycle=30 s sonication and 30 s cooldown with “High” energy intensity) using a Bioruptor® Plus sonication (Diagenode, UCD-300). After sonication, the solution was centrifuged at 15,000 rpm for 10 minutes. The supernatant was kept as nuclear extraction. Protein concentration was determined by BCA assay (Thermo Scientific, 23227). […] Signals were detected with an ECL kit (Thermo Scientific™, 34577) by using BioRad Universal Hood II. […] Quantitative PCR amplification was performed on the Prism 7900 Sequence Detection System (Applied Biosystems) using Taqman Gene Expression Assays (Applied Biosystems). […]

[2] = system: RA-resistant neuroblastoma cells; assay: Cell proliferation (cell counting), NEN with RA; assay type: cell-based; conditions: NEN combined with RA, 3 days
Method: as §1

O=C(Nc1ccc([N+](=O)[O-])cc1Cl)c1cc(Cl)ccc1O [NEN, 5-chloro-N-(2-chloro-4-nitrophenyl)-2-hydroxybenzamide compound with 2-aminoethanol (1:1)] was tested, and the tumor growth [1] was “significantly slowed”, the cell proliferation (neuroblastoma cells) was “significantly inhibited” and the “mRNA level of N-Myc” value (N-Myc) was “significantly reduced”. For the same compound, the “protein level of N-Myc” value (N-Myc) was “significantly reduced” and the “RA-dependent proliferation arrest effect” value [2] was “enhanced”.
